Laboratory results taken from paper PMC6008768, “Physiologically Based Pharmacokinetic Modelling with Dynamic PET Data to Study the In Vivo Effects of Transporter Inhibition on Hepatobiliary Clearance in Mice” (Contrast Media & Molecular Imaging, 2018).
Values joined by “and” are separate entries in the source; they are usually repeats but may differ in a detail not shown here. Equal entries are not always repeated. Where two headings read alike, the source gives them in different places.

Columns and labels:
[1] = Plasma kinetics: biexponential fit of image-derived CPlasma(t) from dynamic PET; type: in vivo, mice
Experimental: (§1) For PET/CT acquisition, mice were anaesthetized with 3 to 5% isoflurane in air/oxygen (1 : 1), at a respiratory rate of ~60 per min as described elsewhere. Cyclosporine (50 mg/kg), to inhibit cyclosporine-sensitive transporters, was injected into a tail vein (i.v.), 30 to 50 min before tracer injection while the respective tracer was synthesized. The injected cyclosporine solution was a dilution with water for injection (1 : 1) of Sandimmun® (Novartis Pharmaceuticals, Basel, Switzerland; 50 mg/ml cyclosporine in 26.1% ethanol/65% PEG-35 castor oil). Vehicle (13% ethanol, 2 ml/kg) was injected as a control as indicated. Immediately after radiosynthesis quality control, the tracer was injected i.v. at a dose between 3 and 14 MBq (<20 nmol/kg) in 100 to 200 μL saline containing 5% ethanol. Injections lasted ~10 s. The mouse was transferred to a SuperArgus PET/CT scanner (Sedecal, Madrid, Spain, formerly Vista eXplore) with an axial field of view of 4.8 cm and a spatial resolution of 1.6–1.7 mm (full width at half maximum; [23]). Body temperature and respiratory rate were controlled as previously described. The PET scan was started in List mode 60 s after tracer injection. After 60 min scan duration, computed tomography (CT) data were recorded for anatomical orientation.
The blood C(t) was generated with PMOD from the PET images as follows. A cropped cube of 10 × 10 × 10 mm^3 including the image data of the heart was divided into 12 segments with differing kinetics, using the PSEG module of PMOD. C(t) of the segment covering the left heart ventricle according to the PET (first time frame)/CT images was used as an estimation of the blood C(t) (CBlood(t)). CBlood(t) was divided by (1 − hematocrit) to get CPlasma(t) and fitted to a biexponential infusion function as shown in (1) CPlasmat=A0/T×V1×λ1×V1/Vz−λ1/λ1λz−λ1×1−e^−λ1×tt≤T+Tt>T×e^−λ1×t−Tt>T+λ1×V1/Vz−λz/λzλ1−λz×1−e^−λz×tt≤T+Tt>T×e^−λz×t−Tt>T, where A(0) is the radioactivity dose, T is the duration of the injection (10 s infusion), V1 is the volume of the central compartment (initial volume of distribution of the tracer after injection), Vz is the volume of distribution during the terminal phase, and λ1 and λz are the respective rate constants of the biexponential function and t the time. The term [t(t ≤ T) + T(t > T)] equals t if t ≤ T but T if t > T. The term (t − T)(t > T) equals t − T if t > T, otherwise zero. The hematocrit was assumed 0.44 [25, 26].
Total CL was calculated as the sum of CLH and CLR and compared to the CL estimated from the CPlasma(t) biexponential fits (see (1)), as CL = λz × Vz. The extraction ratio EH for liver was estimated as ratio between CLH and QP,H, with QP,H from Davies and Morris.

[2] = set-up: method as in PMID 24834996; conditions: cited from earlier work
[3] = PET images: radioactivity distribution; type: in vivo, mice; conditions: for radioactivity distribution in PET images: control conditions; for change of radioactivity distribution in PET images: cyclosporine 50 mg/kg i.v. before tracer, compared to scans without cyclosporine
Experimental: as §1
The PET data were reconstructed into 10 or 12 time frames by 2D Fourier rebinning/ordered-subsets expectation maximization (FORE/OSEM), 2 iterations, and 16 subsets, correcting for singles and randoms but not attenuation. Images were generated with the software PMOD v3.8 (PMOD, Zurich, Switzerland). All radioactivities were decay-corrected to the time point of tracer injection.

[4] = tested on: human costimulatory molecule CD80 (hCD80); set-up: method as in Taddio et al., in preparation; conditions: ref Taddio et al., in preparation; cited from earlier work
[5] = cited from earlier work
[6] = set-up: method as in PMID 24834996; conditions: 30 min after administration; cited from earlier work
[7] = In vivo PBPK compartment modelling of dynamic whole-body PET data; set-up: species or system mice; conditions: for average CLH when kBG was fitted / calculated transintestinal clearance: kBG fitted
From the text: C(t) of liver, kidneys, and peripheral tissue and A(t) of gallbladder and intestines were derived from manually drawn volumes of interest according to the PET/CT images, using the VOI functions of PMOD. Regions of interest are shown for a representative scan in Supplementary Figure 1. C(t) data were transformed to A(t) by multiplication with the reported average volume of the respective organ or tissue. These were 0.065 cm^3 per g BW for liver and 0.0164 cm^3 per g BW for kidneys. The volume of the “peripheral tissue” (VTissue) with C(t) determined from the left shoulder was estimated during the fitting procedure. It was 0.74 ± 0.08 cm^3 per g BW for [^11C]MT107 control scans and 0.79 ± 0.10 cm^3/g for [^11C]MT107 scans after cyclosporine treatment, without significant difference (p = 0.47).
A(t) of the individual regions of interest were fitted with custom-written MATLAB scripts (MathWorks, Natick, MA) according to the compartment model shown in Figure 2, using the ode45 function to solve the differential equation system. Tracer input was simulated as a constant input of duration T (A(0)/T). Fitting was performed with the solver fmincon and the function MultiStart with 128 random sets of bounded initial parameters. Calculations were performed by parallel computing on 40 cores of the Euler cluster of ETH Zurich (https://scicomp.ethz.ch/). The initial parameters were best guesses from supervised simulations. Initial lower bounds were 0 for the rate constants of mass transfer (k). For k from plasma to liver and kidneys, the initial upper bounds were set according to the reported values for blood flow, corrected for (1 − hematocrit) to get the plasma flow (QP) divided by the plasma volume (VPlasma = vBlood × (1 − hematocrit) × BW). The QP for liver (QP,H) was 1.0 ml/min and for kidneys (QP,R) 0.73 ml/min.
Figure 2 Model for the pharmacokinetic analysis. A(0) is the dose, and T is the infusion duration (10 s). Initial A(t = 0) for all compartments (indicated by black boxes) were zero. The parameters k are mass transfer rate constants with the unit 1/time. The indices denote the source and target compartments, respectively (e.g., kBH1, k for the mass transfer from blood plasma to hepatic compartment “Liver 1”). A(t) of peripheral tissue was best fit with two sets of rate constants for reversible transfer. The sum of the two plasma-to-tissue rate constants is kBT. Several models were evaluated and the results were visually inspected. […] For [^11C]MT107 scans, kBG (grey arrow) was set to 0. Tissue blood fractions (vBlood multiplied with the organ or tissue volume and CBlood(t)) were added to the compartments where applicable. B, blood plasma; G, gallbladder plus intestine combined; H, liver; R, kidneys; T, peripheral tissue; U, urine.
During the fitting procedure, the sum of weighted squared residuals of all A(t) was minimized. For weighting, the residuals of the first two data points of plasma, liver, and kidney were multiplied with 5, to force the fits through these initial data points. After several rounds, the best estimates with the lowest sum of squared residuals were used per tracer to define the final upper and lower bounds as 0.5-fold the minimal respective fit parameter and 2-fold the highest respective fit parameter per tracer. […] Under these refined conditions, one calculation (one scan) with 128 random sets of initial values required 10–120 min.
CLH was calculated according to (2) CLH=kBH1×kH1H2/kH1B+kH1H2×VPlasma, where the rate constants k are defined in the model in Figure 2. Note that at steady state this equals CLH calculated from kH2G.
The term 1/(1 + kR1R2/kR2R1) corrects for the mass ratio between R1 and the combined R1 and R2.
Total CL was calculated as the sum of CLH and CLR and compared to the CL estimated from the CPlasma(t) biexponential fits (see (1)), as CL = λz × Vz. […]

[8] = tested on: hCD80-positive xenografts; set-up: method as in PMID 24834996; conditions: previous work; cited from earlier work
[9] = after cyclosporine 50 mg/kg i.v.
[10] = after cyclosporine 50 mg/kg i.v., 30 to 50 min before tracer
[11] = control, tracer i.v., 60 min PET scan
[12] = control, for [11C]AM7 CLH includes kBG × VPlasma, for [11C]MT107 kBG = 0
[13] = cyclosporine 50 mg/kg i.v. versus control

Row | Vz, volume of distribution during the terminal phase [1, 9] [mL] | λ1 rate constant of biexponential function [1, 9] [min⁻¹] | λz rate constant of biexponential function [1, 9] | V1, volume of the central compartment [1, 10] [mL] | Vz, volume of distribution during the terminal phase ([1]; control) | λ1 rate constant of biexponential function ([1]; control) | λz rate constant of biexponential function ([1]; control) | V1, volume of the central compartment [1, 11] | CLR, renal clearance ([7]; control) | DTissue, distribution coefficient between tissue and plasma at equilibrium ([7]; control) | CLH, hepatobiliary clearance [7, 12] | Compound | radioactivity distribution in PET images [3] | change of radioactivity distribution in PET images [3] | affinity to hCD80 [4] | other results
1 | 8.0 | 0.204 | 0.0206 min⁻¹ | 4.2 | 10.3 mL and 9.4 mL | 0.196 min⁻¹ and 0.295 min⁻¹ | 0.0234 min⁻¹ and 0.0270 min⁻¹ | 3.0 mL and 2.3 mL | 161 µL/min and 179 µL/min | 0.11 and 0.12 | 103 µL/min and 120 µL/min | [11CH3]N1CCC(NC(=O)c2ccc(-n3[nH]c4c(nnc5c(F)cccc54)c3=O)cc2)CC1 [[^11C]AM7] | accumulated in the liver, gallbladder, intestines, and the urinary bladder | increased in kidneys and peripheral tissue and reduced in liver, gallbladder, and intestines | low nanomolar range | unbound fraction in plasma (fu) [2]: 0.02; logD (pH 7.4) [5]: 0.1; radiometabolites in blood plasma [6]: No radiometabolites were detected; accumulation in hCD80-positive xenografts [8]: negligible
2 | 3.33 ± 0.80 | 0.139 ± 0.021 | 0.0140 ± 0.0034^∗∗b 1/min | 1.38 ± 0.11 | 2.66 ± 0.51 mL | 0.121 ± 0.011 min⁻¹ | 0.0210 ± 0.0011 min⁻¹ | 1.49 ± 0.19 mL | 11.9 ± 5.3 µL/min | 0.10 ± 0.02 | 35.2 ± 10.9 µL/min | [11CH3]N1CCC(NC(=O)c2ccc(-n3[nH]c4c(c(-c5cccc(C(F)(F)F)c5)nc5c(F)cccc54)c3=O)cc2)CC1 [[^11C]MT107] | higher tissue radioactivity compared to [^11C]AM7 but still high abdominal radioactivity accumulation | increased radioactivity uptake in the kidneys and peripheral tissue and reduction in the liver | low nanomolar range | increase of Vz after cyclosporine administration ([1]; not significant (p = 0.21)): 1.25 fold; logD (pH 7.4) ([5]; ref Taddio et al., in preparation): 2.0; kGH1, rate constant of reabsorption from intestines into liver compartment H1 ([7]; absence of cyclosporine): 0.0077 ± 0.0033 min⁻¹; CLR, renal clearance [7, 9]: 19.9 ± 5.1 µL/min; DTissue, distribution coefficient between tissue and plasma at equilibrium [7, 9]: 0.14 ± 0.03; CLH, hepatobiliary clearance ([7]; after cyclosporine 50 mg/kg i.v., kBG = 0): 17.1 ± 5.6 µl/min and 17.1 ± 5.6^∗b µl/min; average CLH when kBG was fitted ([7]; after cyclosporine administration): 9.3 ± 4.2 µL/min; increase of CLR after cyclosporine administration ([7]; average, not significant (p = 0.069)): 1.7 fold; EH, extraction ratio for liver (CLH/QP,H) ([7]; control): 0.035 ± 0.011; total CL from modelling lower than from biexponential fit of CPlasma(t) ([7]; control group): 16%; VTissue, volume of the peripheral tissue estimated during fitting ([7]; control scans): 0.74 ± 0.08 cm^3 per g BW; average CLH when kBG was fitted ([7]; control): 25.4 ± 6 µL/min; calculated transintestinal clearance ([7]; control): 10.5 ± 11.3 µL/min; CLH after cyclosporine relative to value in the absence of cyclosporine [7, 13]: 48%; EH after cyclosporine relative to value in the absence of cyclosporine [7, 13]: 48%; total CL from modelling lower than from biexponential fit of CPlasma(t) ([7]; cyclosporine group): 17%; calculated transintestinal clearance ([7]; cyclosporine group): 7.8 ± 4.1 µL/min; increase of average DTissue after cyclosporine administration (factor) ([7]; not significant (p = 0.078)): 1.34; kGH1, rate constant of reabsorption from intestines into liver compartment H1 ([7]; presence of cyclosporine): 0.0080 ± 0.0038 min⁻¹; VTissue, volume of the peripheral tissue estimated during fitting ([7]; scans after cyclosporine treatment): 0.79 ± 0.10 cm^3/g
